One compound from BindingDB's records for PubMed 31434879 (University of California Irvine (UCI)) can be followed below.

Assay [1] is described as follows: Inhibition of FLT3-ITD (unknown origin) expressed in mouse BaF3 cells assessed as inhibition of FLT3-ITD dependent cell proliferation incubated for 3 days by ATPlite 1step Luminescence Assay reagent based assay. Background: Cellular ATP, detected with luciferase, serves as a proxy for viable cell number.
Assay [2] is described as follows: Inhibition of FLT3 (unknown origin) expressed in mouse BaF3 cells assessed as inhibition of FLT3 ligand-FLT3 dependent cell proliferation incubated for 3 days by ATPlite 1step Luminescence Assay reagent based assay.

Where only a bound is given, the exact number is not on record here.

One may read the IC50 as the point on the concentration scale where inhibition reaches its midpoint. Turning to `COc1ncc(F)cc1CNc1ccc(Cc2c[nH]c3ncc(C)cc23)c(F)n1` [US9096593, P-2049], the IC50 in assay [1] and in assay [2] was above 10 µM throughout.
